The values that follow are results of earlier work, collected in patent US20090022706A1, “SUBSTITUTED CYCLOHEXENES” (Auspex Pharmaceuticals, Inc., priority 2007, published 2009).

Structures are written as SMILES.

In data set [1] the test system is nitric oxide (NO) production.
Data set [2] concerns Toll-Like Receptor 4 (TLR4)-mediated cytokine production. To be noted: under pro-inflammatory conditions.

Take `CCOC(=O)C1=CCCC[C@H]1S(=O)(=O)Nc1ccc(F)cc1Cl` [TAK-242, (R)-6-(2-chloro-4-fluoro-phenylsulfamoyl)-cyclohex-1-enecarboxylic acid ethyl ester]: the “in vitro production of nitric oxide (NO)” value in data set [1] was “inhibits”. Also, the “production of various cytokines, such as IL-1β, IL-6, IL-12, and TNF-α” value in data set [2] is listed as “inhibits”.
